tested on: Thoracic aorta; test: Vasorelaxing effect in endothelium-intact Wistar rat thoracic aorta ring assessed as inhibition of phenylephrine-stimulated contraction; assay type: functional, tissue-based

SMILES	IC50	inhibition
CCC[C@H](CC(=O)O)c1c2c(c(O)c3c1O[C@H](C)[C@@H](C)C3=O)C=CC(C)(C)O2	13.8 µM	Dose-dependent effect
CCC[C@H](CC(=O)O)c1c2c(c(O)c3c1O[C@H](C)[C@H](C)C3=O)C=CC(C)(C)O2	18.9 µM	Dose-dependent effect
CC[C@H](CC(=O)O)c1c2c(c(O)c3c1O[C@H](C)[C@H](C)C3=O)C=CC(C)(C)O2	6.07 µM	Dose-dependent effect
C[C@H](CC(=O)O)c1c2c(c(O)c3c1O[C@H](C)[C@H](C)C3=O)C=CC(C)(C)O2	10.3 µM	Dose-dependent effect
CC[C@H](CC(=O)O)c1c2c(c(O)c3c1O[C@H](C)[C@@H](C)C3=O)C=CC(C)(C)O2	10.4 µM	Dose-dependent effect
CCCC[C@H](CC(=O)O)c1c2c(c(O)c3c1O[C@H](C)[C@H](C)C3=O)C=CC(C)(C)O2	12.1 µM	Dose-dependent effect

Source: ChEMBL document CHEMBL4038295, “Calofolic acids A-F, chromanones from the bark of Calophyllum scriblitifolium with vasorelaxation activity” (Bioorg Med Chem Lett, 2017)
